According to patent US7893066B2, “Pyridol[2,3-B]pyrazinones for use as stearoyl CoA desaturase inhibitors” (Gilead Palo Alto, Inc., priority 2006, dated 2011):

molecular target: T1, stearoyl-CoA desaturase (SCD) (Rattus norvegicus, UniProt P07308); experiment: SCD assay, rat liver microsomes with [3H]stearoyl CoA (adapted from Talamo and Bloch); assay type: biochemical; conditions: second table, same SCD assay
T1 construct: from tissue; host or cells: liver microsomes of male Sprague Dawley rats, with SCD induced by a carbohydrate-rich diet
T1 sequence (P07308 1-358): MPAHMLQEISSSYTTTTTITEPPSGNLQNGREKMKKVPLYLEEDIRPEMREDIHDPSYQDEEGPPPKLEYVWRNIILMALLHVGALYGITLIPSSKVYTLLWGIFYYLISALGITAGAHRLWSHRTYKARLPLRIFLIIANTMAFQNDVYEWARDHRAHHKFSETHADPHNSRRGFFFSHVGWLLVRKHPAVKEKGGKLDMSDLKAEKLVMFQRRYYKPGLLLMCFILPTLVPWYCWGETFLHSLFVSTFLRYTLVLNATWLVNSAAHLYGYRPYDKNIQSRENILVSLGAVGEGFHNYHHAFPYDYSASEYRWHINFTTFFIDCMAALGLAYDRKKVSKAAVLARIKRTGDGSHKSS
Source text: The identification of compounds of the invention as SCD inhibitors was readily accomplished using the SCD enzyme and microsomal assay procedure described in Talamo and Bloch (1969) Analytical Biochemistry 29:300-304.
The rat liver microsomes were collected according to the procedure described in Ozols (1990) Methods Enzm, 182:225.
Male Spraque Dawley Rats were placed on regimented fasting protocol for one week to stimulate SCD enzymatic activity. 48-hour periods were alternated between feeding and fasting to induce and down-regulate SCD activity with SCD activity being induced via carbohydrate rich diet prior to liver perfusion and collection.
The rats were anesthetized with Isoflurane inhalation anesthetic, the liver perfused with cold phosphate buffered saline (PBS), weighed, and chilled in cold homogenization buffer (250 mM sucrose, 10 mM Tris, 1 mM EDTA, pH 7.6.
The livers were finely minced and placed in homogenization tube. 40 mL of homogenization buffer was added to the homogenization tube and the liver homogenized and centrifuged in a pre-chilled SLA-600 TC at 800G rotor for 10 min at 4° C.
Following centrifugation, the supernatant was collected and the pellet removed and discarded. This supernatant was then centrifuged at 10,000G for 35 minutes. Following centrifugation, the supernatant was collected and the pellet discarded. The supernatant was further centrifuged in a pre-chilled 45-Ti rotor at 130,000 G (41,000 RPM) for 90 minutes at 4° C.
The supernatant was then aspirated off and the collected microsomal pellet washed in 25 mL of Glycerol PBS (1×PBS 7.4, 20% Glycerol) and resuspended in 4-5 volumes of Glycerol PBS.
The protein concentration of the microsomal preparation was determined by BCA assay (Pierce) and the microsomes were aliquoted and stored at −80° C.
Biobeads were ground to a smaller size in a mortar and pestle and filtered through 300 μM mesh and then resuspended in 3.6% TCA.
SCD was determined in the desaturase assay buffer. This assay buffer contained 0.1 M Tris buffer, pH 7.2, 2 mM NADH, 4.8 mM ATP, 0.5 mM CoA, 4.8 mM MgCl2, and 0.1% BSA.
1 μl of each compound of Formula I was added to an assay plate by a low volume (0.5-10 μL) multichannel pipette. A DMSO control was also prepared. The microsomes were quickly thawed and added to assay buffer so that a concentration of 1-0.1 mg/ml was achieved (0.5-0.05 mg/ml assay final). 50 μl of the microsome suspension in assay buffer was then added into each well in the compound assay plate, the plate was covered, and the microsomes preincubated with the compounds for 30-60 minutes on the orbital shaker, 50-75 rpm, at room temperature.
After preincubation, the reaction was initiated by the addition of 50 μl of substrate solution (20 μM Stearoyl CoA, [3H]Stearoyl CoA, 74nCi) to the preincubated microsomes/compound suspensions in MilliQ (Millipore) H2O. The reaction mixtures were then incubated for 45 minutes on the orbital shaker at 50-75 rpm at room temperature.
The reaction was terminated by the addition of 10 μl of 21% trichloroacetic acid (TCA) to the reaction mixture followed incubation on the orbital shaker for 30 minutes at 50-75 rpm at room temperature followed by centrifugation for 5 minutes at 3700 rpm.
50 μl of a 6% Bio-Bead suspension in H2O was added to the reaction mixture and the assay plate was sealed. The Bio-Bead mixture was incubated on the orbital shaker for 1 to 24 hours, 100-150 rpm at room temperature, and then the mixture was centrifuged at 2000g for 5 minutes to pellet the Bio-Beads.
25 μl of the supernatant was harvested from each well and transferred to a detection plate. 100 μl of OptiPhase SuperMix scinitillation cocktail (containing sufficient NaOH to neutralize the TCA) was added and the solutions mixed by vigorous shaking (300-400 rpm) for 5 minutes at room temperature.

Row | Compound | IC50
1 | CC(=O)NCCn1c(=O)c(-c2ccc(F)cc2)nc2ccc(NCc3cccc(C(F)(F)F)c3)nc21 [compound 28, N-(2-(2-(4-fluorophenyl)-3-oxo-6-(3-(trifluoromethyl)benzylamino)pyrido[2,3-b]pyrazin-4(3H)-yl)ethyl)acetamide] | 0.39 µM
2 | N-(2-(7-(2-(2-chlorophenoxy)ethylamino)-3-(4-methoxyphenyl)-2-oxoquinoxalin-1(2H)-yl)ethyl)acetamide [compound 55] | 0.25 µM
3 | COc1ccc(-c2nc3ccc(NCc4ccc(Cl)c(Cl)c4)nc3n(CCNC(=O)COC(C)=O)c2=O)cc1 [compound 33, 2-(2-(6-(3,4-dichlorobenzylamino)-2-(4-methoxyphenyl)-3-oxopyrido[2,3-b]pyrazin-4(3H)-yl)ethylamino)-2-oxoethyl acetate] | 0.12 µM
4 | COc1ccc(-c2nc3ccc(NCCc4ccc(Cl)cc4)cc3n(CCNC(C)=O)c2=O)cc1 [compound 58, N-(2-(7-(4-chlorophenethylamino)-3-(4-methoxyphenyl)-2-oxoquinoxalin-1(2H)-yl)ethyl)acetamide] | 0.082 µM
5 | CC(=O)NCCn1c(=O)c(-c2ccc(NC(C)=O)cc2)nc2ccc(NCc3cccc(C(F)(F)F)c3)nc21 [compound 25, N-(4-(4-(2-acetamidoethyl)-3-oxo-6-(3-(trifluoromethyl)benzylamino)-3,4-dihydropyrido[2,3-b]pyrazin-2-yl)phenyl)acetamide] | 4.3 µM
6 | COc1ccc(-c2nc3ccc(NCc4cc(C(F)(F)F)ccn4)nc3n(CCNC(C)=O)c2=O)cc1 [compound 4, N-(2-(2-(4-methoxyphenyl)-3-oxo-6-((4-(trifluoromethyl)pyridin-2-yl)methylamino)pyrido[2,3-b]pyrazin-4(3H)-yl)ethyl)acetamide] | 0.18 µM
7 | Cc1nc2ccc(NCc3cccc(C(F)(F)F)c3)nc2n(CCCC(N)=O)c1=O [compound 36, 4-(2-methyl-3-oxo-6-(3-(trifluoromethyl)benzylamino)pyrido[2,3-b]pyrazin-4(3H)-yl)butanamide] | 1.6 µM
8 | COc1ccc(-c2nc3ccc(NCc4cc(C(F)(F)F)ccc4F)nc3n(CCNC(C)=O)c2=O)cc1 [compound 21, N-(2-(6-(2-fluoro-5-(trifluoromethyl)benzylamino)-2-(4-methoxyphenyl)-3-oxopyrido[2,3-b]pyrazin-4(3H)-yl)ethyl)acetamide] | 1.5 µM
9 | benzyl 1-(2-acetamidoethyl)-3-(3,4-dichlorophenyl)-2-oxo-1,2-dihydroquinoxalin-6-ylcarbamate [compound 47] | 2.3 µM
10 | COc1ccc(-c2nc3ccc(NCc4ccc(Cl)c(C(F)(F)F)c4)cc3n(CCNC(C)=O)c2=O)cc1 [compound 62, N-(2-(7-(4-chloro-3-(trifluoromethyl)benzylamino)-3-(4-methoxyphenyl)-2-oxoquinoxalin-1(2H)-yl)ethyl)acetamide;] | 0.006 µM
11 | N-(2-(3-oxo-6-(3-(trifluoromethyl)benzylamino)-2-(4-(trifluoromethyl)phenyl)pyrido[2,3-b]pyrazin-4(3H)-yl)ethyl)acetamide [compound 37] | 1.3 µM
12 | N-(2-(6-(3,4-dichlorobenzylamino)-2-(4-methoxyphenyl)-3-oxopyrido[2,3-b]pyrazin-4(3H)-yl)ethyl)-2-hydroxyacetamide [compound 34] | 0.12 µM
13 | 3-(2-(4-ethylphenyl)-3-oxo-6-(3-(trifluoromethyl)benzylamino)pyrido[2,3-b]pyrazin-4(3H)-yl)propanamide [compound 29] | 0.15 µM
14 | COc1ccc(-c2nc3cc(NC(=O)OCc4ccccc4)ccc3n(CCNC(C)=O)c2=O)cc1 [compound 46, benzyl 1-(2-acetamidoethyl)-3-(4-methoxyphenyl)-2-oxo-1,2-dihydroquinoxalin-6-ylcarbamate] | 20 µM
15 | 4-(2-(4-methoxyphenyl)-3-oxo-6-(3-(trifluoromethyl)benzylamino)pyrido[2,3-b]pyrazin-4(3H)-yl)butanamide [compound 35] | 0.15 µM
16 | (±)-2,3-dihydroxy-N-(2-(3-methyl-2-oxo-7-(3-(trifluoromethyl)benzylamino)-quinoxalin-1(2H)-yl)ethyl)-propanamide [compound 59] | 0.36 µM
17 | COc1ccc(-c2nc3ccc(NCc4ccccc4)nc3n(CCNC(C)=O)c2=O)cc1 [compound 8, N-(2-(6-(benzylamino)-2-(4-methoxyphenyl)-3-oxopyrido[2,3-b]pyrazin-4(3H)-yl)ethyl)acetamide] | 0.84 µM
18 | 3-(3-oxo-2-(4-propylphenyl)-6-(3-(trifluoromethyl)benzylamino)pyrido[2,3-b]pyrazin-4(3H)-yl)propanamide [compound 31] | 0.38 µM
19 | CNC(=O)CCn1c(=O)c(-c2ccc(OC)cc2)nc2ccc(NCc3cccc(C(F)(F)F)c3)nc21 [compound 19, 3-(2-(4-methoxyphenyl)-3-oxo-6-(3-(trifluoromethyl)benzylamino)pyrido[2,3-b]pyrazin-4(3H)-yl)-N-methylpropanamide] | 0.36 µM
20 | COc1ccc(-c2nc3ccc(NCc4ccc(Cl)c(Cl)c4)nc3n(CCNC(=O)CN(C)C)c2=O)cc1 [compound 32, N-(2-(6-(3,4-dichlorobenzylamino)-2-(4-methoxyphenyl)-3-oxopyrido[2,3-b]pyrazin-4(3H)-yl)ethyl)-2-(dimethylamino)acetamide] | 12 µM
21 | CCc1ccc(-c2nc3ccc(NCc4cccc(C(F)(F)F)c4)nc3n(CCNC(C)=O)c2=O)cc1 [compound 27, N-(2-(2-(4-ethylphenyl)-3-oxo-6-(3-(trifluoromethyl)benzylamino)pyrido[2,3-b]pyrazin-4(3H)-yl)ethyl)acetamide] | 0.093 µM
22 | 3-(2-(4-methoxyphenyl)-3-oxo-6-(3-(trifluoromethyl)benzylamino)pyrido[2,3-b]pyrazin-4(3H)-yl)propanamide [compound 6] | 0.035 µM
23 | N-(2-(6-(3-methoxybenzylamino)-2-(4-methoxyphenyl)-3-oxopyrido[2,3-b]pyrazin-4(3H)-yl)ethyl)acetamide [compound 13] | 0.76 µM
24 | N-(2-(3-(4-methoxyphenyl)-7-(3-methylbenzylamino)-2-oxoquinoxalin-1(2H)-yl)ethyl)acetamide [compound 56] | 0.018 µM
25 | CC(=O)NCCn1c(=O)c(-c2ccc(C)cc2)nc2ccc(NCc3cccc(C(F)(F)F)c3)nc21 [compound 26, N-(2-(3-oxo-2-p-tolyl-6-(3-(trifluoromethyl)benzylamino)pyrido[2,3-b]pyrazin-4(3H)-yl)ethyl)acetamide] | 0.11 µM
26 | COc1ccc(-c2nc3ccc(NCc4cccc(C(F)(F)F)n4)nc3n(CCNC(C)=O)c2=O)cc1 [compound 3, N-(2-(2-(4-methoxyphenyl)-3-oxo-6-((6-(trifluoromethyl)pyridin-2-yl)methylamino)pyrido[2,3-b]pyrazin-4(3H)-yl)ethyl)acetamide] | 10 µM
27 | CC(=O)NCCn1c(=O)c(C)nc2cc(NCc3ccccc3)cnc21 [compound 43, N-(2-(7-(benzylamino)-2-methyl-3-oxopyrido[2,3-b]pyrazin-4(3H)-yl)ethyl)acetamide] | 1.1 µM
